Reference: patent publication US7846671B2, “Methods of screening for agents that modulate the interaction of RGS and Gαq and urinary incontinence” (Bristol-Myers Squibb Company, priority 2002, dated 2010)
Entries after “also recorded” stand apart in the source; their conditions may differ.

Key:
[1] = system: rat bladder strips; assay: Isolated rat bladder strips: inhibition of carbachol-evoked contraction
Procedure: Isolated Rat Bladder Strips
Male rats (Harlan, Sprague Dawley, 250-350 g) were sacrificed by decapitation, the bladder removed and cleaned of connective tissue. Strips of bladder were then cut from the bladder body and each was placed in an organ bath, suspended between a fixed hook and a force transducer, containing oxygenated physiological buffer (composition in mM: NaCl 118.4, KCl 4.7, KH2PO4 1.2, MgSO4 1.3, CaCl2 1.8, glucose 10.1, NaHCO3 25, gassed with 95%O2/5%CO2) and maintained at 37° C. Force generated by the bladder strips was recorded and measured using an AcqKnowledge data acquisition system (AcqKnowledge for MP100WS, Biopac Systems Inc., Goleta, Calif.).
The bladder strips were primed by stimulating them with 10 μM carbachol to evoke a contraction. The strips were then washed multiple times with fresh physiological buffer and allowed to fully relax. Following a period of recovery, the strips were again challenged with 10 μM carbachol to produce a contraction; this contractile response served as the control response. The strips were again washed multiple times and allowed to fully relax (45 minutes). Test compound or vehicle was then added to each organ bath. Following a one hour incubation period, the strips were again stimulated with 10 μM carbachol and the contractile response measured.
The percent inhibition of the carbachol response by the test compounds was calculated by comparing control and post-compound carbachol responses corrected for vehicle effects.

[2] = system: Gq signaling in Hek 293 kidney cells; assay: [Ca2+]i measurement, carbachol-induced calcium signal in HEK 293 cells; type: cell-based, human
Procedure: • 1. HEK 293 or Clonetics primary human bladder smooth muscle cells were plated at a concentration of 7e3 cells/well in Poly-L lysine coated 96 well plates, white with clear bottoms (Costar). • 2. The plates are allowed to attach overnight at 37° C. 5%CO2. The cells were rinsed 2× with Krebs-HEPES buffer and then loaded with 4 uM Fluo4 (Molecular Probes) for 60 minutes in the same buffer containing 1% (wt/vol) Pluronic F-127 and 0.25 mM sulfinpyrazone. • 3. After loading the cells were rinsed 3× with Krebs-HEPES buffer containing 0.5% (wt/vol) BSA (Sigma Chemical) • 4. Buffer alone or buffer containing test compounds, was injected sequentially into separate wells and the fluorescence intensity monitored in a Victor2 96 well plate fluorometer (PE-Wallac). Measurements were taken at 1-s intervals using an excitation wavelength of 485 nm and emissions filter of 535 nm. • 5. Five baseline measurements were taken at 1-s intervals prior to each injection (see FIGS. 4A and 4B).
Calcium assays were run by standard protocols as described above and in Zhu et al., 1998, J. Biol Chem 273:133-142. It is known that calcium signals in response to carbachol have both a Gq and a Go/Gi signaling component. Pertussis toxin is a known inhibitor of Go/Gi signaling in cells. We asked the question if Compound I was inhibiting Gq or Go/Gi signals in Hek 293 kidney cells. […] to block the Go/I but not Gq signals. […] If however Compound I were inhibiting Gq signal specifically, then we would expect the combination of pertussis toxin (hitting Go/Gi) and Gq.

[3] = biological target: T1, RGS7/Gq (Homo sapiens, UniProt P49802+P50148); assay: Co-immunoprecipitation of Gq with RGS7 from transfected Hek 293 cells; type: binding; conditions: immunoprecipitation blot
T1 sequence (P49802 1-469 isoform P49802-2): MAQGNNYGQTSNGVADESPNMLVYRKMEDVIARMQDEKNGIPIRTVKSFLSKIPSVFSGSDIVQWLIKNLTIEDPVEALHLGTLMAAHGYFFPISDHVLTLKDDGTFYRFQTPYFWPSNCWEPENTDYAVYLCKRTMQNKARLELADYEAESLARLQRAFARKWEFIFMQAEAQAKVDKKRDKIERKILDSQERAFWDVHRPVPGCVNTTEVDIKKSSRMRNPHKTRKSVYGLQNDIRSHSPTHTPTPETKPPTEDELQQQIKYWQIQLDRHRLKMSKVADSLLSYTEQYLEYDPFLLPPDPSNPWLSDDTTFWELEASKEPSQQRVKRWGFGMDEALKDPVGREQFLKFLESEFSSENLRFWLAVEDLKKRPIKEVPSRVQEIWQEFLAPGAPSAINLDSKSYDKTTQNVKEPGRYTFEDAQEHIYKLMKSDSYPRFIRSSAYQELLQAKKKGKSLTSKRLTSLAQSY
T1 sequence (P50148 1-359): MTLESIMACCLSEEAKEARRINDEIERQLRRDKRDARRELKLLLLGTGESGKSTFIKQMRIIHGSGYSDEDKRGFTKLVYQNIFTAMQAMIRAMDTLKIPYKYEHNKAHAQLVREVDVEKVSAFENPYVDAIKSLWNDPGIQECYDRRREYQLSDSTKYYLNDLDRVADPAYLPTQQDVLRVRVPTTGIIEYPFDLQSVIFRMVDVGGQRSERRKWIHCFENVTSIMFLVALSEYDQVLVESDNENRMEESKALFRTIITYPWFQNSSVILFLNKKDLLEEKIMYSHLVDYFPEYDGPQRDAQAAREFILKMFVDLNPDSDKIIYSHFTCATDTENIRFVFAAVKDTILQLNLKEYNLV
T1 sequence (O14775 43-395 partner limits assumed): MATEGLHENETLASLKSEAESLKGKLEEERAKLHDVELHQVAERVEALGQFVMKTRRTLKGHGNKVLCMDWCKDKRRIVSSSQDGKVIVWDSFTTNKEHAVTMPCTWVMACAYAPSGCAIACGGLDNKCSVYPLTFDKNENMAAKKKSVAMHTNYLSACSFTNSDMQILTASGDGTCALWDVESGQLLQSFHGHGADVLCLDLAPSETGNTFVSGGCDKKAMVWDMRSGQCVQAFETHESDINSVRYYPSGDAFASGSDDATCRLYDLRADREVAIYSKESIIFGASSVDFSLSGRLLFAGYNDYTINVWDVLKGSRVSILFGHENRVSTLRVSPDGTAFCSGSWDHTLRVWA
Procedure: Hek 293 cells were transfected with CMV-G alpha qHA, CMV-mycRGS-7 and CMV-Gbeta5. 48 hours later the cells were harvested and lysed. Antibody to the myc epitope was utilized to immunoprecipitate RGS-7 in the presence or absence of ALF4-. The precipitated proteins were split into two fractions and loaded onto gels and western blotted on to nitrocellulose. In FIG. 6, the left blot (1) was probed with anti-myc antibody to detect RGS-7. RGS-7 was immunoprecipitated by the anti-myc antibody in the presence and absence of ALF4-. […] A G alpha q protein band was detected to have associated with RGS-7 and precipitated in the presence of ALF4- (lanes A) but not in the absence of ALF4- (lane B). In the second experiment, RGS-7 was immuno-precipitated again with the Myc epitope to which it was fused and the presence of G alpha q was detected in the presence or absence of ALF4- or different concentrations of Compound III. […] This increase in RGS-7 affinity would be predicted to be the same for other RGS7 family members such as RGS 6,9 and 11, as they have been shown previously to have similar affinities and effects on G alpha q. In addition this assay provides a method for screening for compounds that affect the interaction of RGS proteins and G alpha q.
In FIG. 5B, Compounds I, II and III affect the affinity of Gq and RGS proteins for one another. FIG. 5B is an immunoprecipitation blot of myc tagged RGS which has been probed with an anti hemagglutinin antibody to detect a hemagglutinin tagged Gαq. […] The ability of Compounds I, II and III to increase the affinity of Gq and RGS is a novel mechanism by which one can Gαq activity and such compounds and screens for additional compounds with such activity are useful wherever one desires to antagonize g protein signaling that involves Gαq and RGS proteins. […]

[4] = system: C. elegans; assay: C. elegans compound treatment: neuromuscular and egg-laying phenotypes
Procedure: C. elegans strains were cultured and maintained according to standard procedures (Brenner, 1974; Hodgkin, 1988). All strains were assayed at 20° C. unless otherwise indicated. compound was mixed with killed bacteria slurry (strain OP50, taken through multiple freeze-thaw cycles) to 2× desired final concentration. Adult wildtype (Bristol N2) or mutant hermaphrodites were collected in M9. Worms were mixed 1:1 with compound/bacteria mixture, and plated on peptone-free NGM plates. Plates were allowed to dry, and then placed at 20° C. until assayed. For egg-laying assays, adults were treated overnight with compound. Approximately thirty animals were loaded onto agar pads made on glass slides and examined under Nomarski optics. Animals were scored as egg-laying defective if they contained>comma stage embryos.

In the case of `O=c1[nH]c(-c2ccc(Br)s2)nn1-c1cc(Cl)c(Br)cc1O` [Compound II, 2-(4-bromo-5-chloro-2-hydroxyphenyl)-2,4-dihydro-5-(5-bromothien-2-yl)-3H-1,2,4-triazol-3-one], the inhibition at 3 µM ([1]; Rattus norvegicus, 3 μM compound, 1 h incubation, 10 μM carbachol, read-out: Inhibition of the carbachol response) was 20 to 40%, the “Carbachol induced calcium influxes” value [2] was “blocked” and the “Affinity of RGS7 and Gq (Gq co-precipitated with myc-RGS-7)” value (“Affinity of RGS7 and Gq” for short) [3] was “clearly increase the affinity of Gq for RGS”.
For Alf4- [reference compound], the “Affinity of RGS7 and Gq” value [3] was “increases its affinity with RGS”.
In the case of `O=c1[nH]c(-c2ccc(C(F)(F)F)cc2)nn1-c1cc(Cl)ccc1O` [Compound I], the “Relaxation of bladder smooth muscle strips contracted with carbachol” value [1] was “capable of relaxing strips of bladder smooth muscle”, the inhibition at 10 µM ([1]; Rattus norvegicus, 10 μM compound, 1 h incubation, 10 μM carbachol, read-out: Inhibition of the carbachol response) was 40 to 60% and the “Neuromuscular defects (pharyngeal pumping, body movement, egg-laying)” value [4] was “causes neuromuscular defects”. The “Carbachol induced calcium influxes” value [2] was “blocked”, the “Combined effect with pertussis toxin on carbachol calcium signal” value [2] was “cumulative” and the “Effect on function of human RGS and Gq signaling proteins via Ca++ signaling” value [2] was “clearly able to effect the function of Gq and RGS”. For the same compound, the “Gq versus Go/Gi specificity of calcium signal inhibition” value ([2]; carbachol) was “specifically inhibiting Gq signaling and not Go/Gi” and the “Affinity of RGS7 and Gq” value [3] was “increase the affinity of RGS7 with Gq; also recorded: clearly increase the affinity of Gq for RGS”.
